According to patent publication US20250283896A1, “PROBES AND METHODS FOR TARGETED VISUALIZATION OF NLRP3 INFLAMMASOMES” (VANDERBILT UNIVERSITY, priority 2022, published 2025):

Assays:
NLRP3 inflammasome = target: T1, NLRP3 inflammasome (Mus musculus, UniProt Q8R4B8); experiment: Inhibition assay of IL-1β (ELISA) in LPS-primed and nigericin-stimulated BMDMs; format: cell-based, murine
T1 construct: InflammaProbe-1 could selectively stain macrophages that have been induced to express NLRP3; host or cells: primary C57BL/6 mouse bone marrow-derived macrophages (BMDM)
T1 sequence (Q8R4B8 whole entry): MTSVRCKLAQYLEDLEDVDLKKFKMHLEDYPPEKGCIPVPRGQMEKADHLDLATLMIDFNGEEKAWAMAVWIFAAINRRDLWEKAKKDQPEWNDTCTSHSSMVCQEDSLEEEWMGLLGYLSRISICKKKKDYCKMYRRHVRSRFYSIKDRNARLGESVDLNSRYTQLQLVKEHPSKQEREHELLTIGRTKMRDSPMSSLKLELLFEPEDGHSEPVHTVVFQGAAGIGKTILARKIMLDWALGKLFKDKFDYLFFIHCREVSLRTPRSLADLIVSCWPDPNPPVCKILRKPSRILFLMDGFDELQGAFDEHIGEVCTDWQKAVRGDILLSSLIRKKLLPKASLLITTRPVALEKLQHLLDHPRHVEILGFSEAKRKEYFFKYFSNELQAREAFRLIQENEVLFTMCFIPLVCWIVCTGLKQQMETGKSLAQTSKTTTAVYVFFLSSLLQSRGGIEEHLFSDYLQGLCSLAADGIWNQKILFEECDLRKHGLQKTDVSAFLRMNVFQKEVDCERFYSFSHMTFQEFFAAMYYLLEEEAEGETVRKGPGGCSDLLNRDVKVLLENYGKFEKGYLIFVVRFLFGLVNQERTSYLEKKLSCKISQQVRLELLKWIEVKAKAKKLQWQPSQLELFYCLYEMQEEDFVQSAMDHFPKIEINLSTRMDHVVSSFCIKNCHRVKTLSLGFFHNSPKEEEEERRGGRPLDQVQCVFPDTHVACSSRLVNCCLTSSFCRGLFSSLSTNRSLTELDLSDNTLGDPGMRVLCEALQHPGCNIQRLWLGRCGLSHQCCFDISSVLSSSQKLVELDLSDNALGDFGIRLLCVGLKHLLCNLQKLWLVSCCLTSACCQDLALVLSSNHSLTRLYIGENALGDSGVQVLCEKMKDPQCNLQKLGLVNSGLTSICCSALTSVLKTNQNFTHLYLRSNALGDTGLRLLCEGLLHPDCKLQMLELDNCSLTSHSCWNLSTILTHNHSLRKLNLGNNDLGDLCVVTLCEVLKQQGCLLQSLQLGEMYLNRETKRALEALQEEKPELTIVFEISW
Experimental: (§1) Cell culture: Bone marrow-derived macrophages (BMDM), isolated from adult C57BL/6 mouse bone marrow, were purchased from ScienCell Research Laboratories (Carlsbad, CA) and cultured in ScienCell's phenol red-free Macrophage Medium (MaM) supplemented with 5% fetal bovine serum (FBS), Macrophage Growth Supplement (MaGS), and 1% Penicillin-Streptomycin (Pen, 100 U/mL; Strep, 100 μg/mL). Mouse Primary Retinal Microvascular Endothelial Cells (MRMEC), isolated from C57BL/6 mice, were purchased from Cell Biologics Inc. (Chicago, IL) and cultured in Cell Biologics' phenol red-free Endothelial Cell Medium supplemented with 0.1% VEGF, 0.1% Heparin, 0.1% EGF, 0.1% ECGS, 0.1% Hydrocortisone, 2 mM L-Glutamine, and 1% Antibiotic-Antimycotic. The medium was additionally supplemented with 10% FBS (R&D Systems, Minneapolis, MN). BMDMs and MRMECs were incubated at 37° C., 5% CO2, and 95% relative humidity.
(§2) Inhibition assay of IL-1β and TNF-α: BMDMs were seeded in 12-well plates at a density of 5×10^4 cells per well. After an overnight incubation, the cells were primed with 50 ng/mL LPS for 3 h, treated with 1 to 10 µM InflammaProbe-1 or CY-09 for 1 h, and stimulated with 10 μM nigericin for another hour to induce NLRP3 activation, as described in the literature. Cell culture supernatants were assayed for mouse IL-1β and TNF-α by performing enzyme-linked immunosorbent assays (ELISA; Invitrogen, Waltham, MA) in accordance with the manufacturer's instructions. The data were expressed as the mean±SD of 3 replicates per group.

NLRP3 = NLRP3 (Mus musculus, UniProt Q8R4B8); conditions: murine model, literature; cited from earlier work
Chain of NLRP3 (Q8R4B8 whole entry): as above

TNF-α = experiment: Off-target assay of LPS-induced TNF-α secretion (ELISA) in BMDMs; format: cell-based, murine; conditions: 10 μM; in comparison to InflammaProbe-1, p<0.05
Experimental: as §1
as §2, with “Cell culture supernatants were assayed for mouse IL-1β and TNF-α by performing enzyme-linked immunosorbent assays (ELISA; Invitrogen, Waltham, MA) in accordance with the manufacturer's instructions.” left out

[1] = system: primary mouse retinal microvascular endothelial cells (MRMEC); experiment: Cell viability assay with Calcein Deep Red AM ester; format: cell-based; conditions: 20 h, 70% ethanol in water; p<0.01
Experimental: Cell culture: Bone marrow-derived macrophages (BMDM), isolated from adult C57BL/6 mouse bone marrow, were purchased from ScienCell Research Laboratories (Carlsbad, CA) and cultured in ScienCell's phenol red-free Macrophage Medium (MaM) supplemented with 5% fetal bovine serum (FBS), Macrophage Growth Supplement (MaGS), and 1% Penicillin-Streptomycin (Pen, 100 U/mL; Strep, 100 μg/mL). Mouse Primary Retinal Microvascular Endothelial Cells (MRMEC), isolated from C57BL/6 mice, were purchased from Cell Biologics Inc. […] The medium was additionally supplemented with 10% FBS (R&D Systems, Minneapolis, MN). BMDMs and […] were incubated at 37° C., 5% CO2, and 95% relative humidity. Cell viability assay: […] (Passage 4) were seeded on sterile black 96-well plates in complete medium at a density of 1.5×10^4 cells per well. […] This fluorescent compound is redshifted relative to […]=510/540 nm), which is necessary to avoid interference from any InflammaProbe-1-dependent fluorescence during fluorometric measurements. […] Finally, fluorometric measurements were performed at ex/em=620/660 nm using the Cytation 5 microplate reader (BioTek Instruments, Inc., Winooski, VT). Fluorescence intensities were plotted as the percentage of cell viability relative to the control group. The data were expressed as the mean±SD of 6 replicates per group.

Compound | decrease of IL-1β levels in comparison to the LPS and nigericin control (NLRP3 inflammasome; 1 μM, p<0.05) [fold] | decrease of IL-1β levels in comparison to the LPS and nigericin control (NLRP3 inflammasome; 5 μM, p<0.01) [fold] | decrease of IL-1β levels in comparison to the LPS and nigericin control (NLRP3 inflammasome; 10 μM, p<0.01) [fold] | inhibition of NLRP3-mediated secretion of IL-1β (NLRP3 inflammasome; LPS-primed and nigericin-stimulated murine BMDM, 1 to 10 μM) | NLRP3-mediated cellular secretion of IL-1β (NLRP3) | effect on levels of TNF-α (TNF-α) | viability of MRMECs (positive control) [1]
O=C(O)c1ccc(/C=C2/SC(=S)N(Cc3cccc(C(F)(F)F)c3)C2=O)cc1 [CY-09] | ~1.3 | ~2 | ~4 | dose-dependently inhibited | suppressed | significantly decreased | 
CCO [70% ethanol, ethanol] |  |  |  |  |  |  | significantly decreased
